For one test, the target named is T1, GP IIb-IIIa (αIIbβ3) (Homo sapiens, UniProt P05106+P08514).
T1 construct: purchased Calbiochem
The test can be described thus: Fibrinogen binding to immobilized GP IIb-IIIa (αIIbβ3). As to conditions: biotinylated-fibrinogen 10 nM, immobilized GP IIb-IIIa; read-out: IC50 values for the fibrinogen binding assay αIIbβ3. The method, then: (§1) Nonbound fibrinogen was removed by five washes with binding buffer. Avidin conjugated to alkaline phosphatase (Sigma), diluted in binding buffer, was added and incubated for two hours at 37° C. The plates were washed five times with binding buffer, and after addition of the substrate PNPP (Pierce), the enzyme activity was measured by the absorbance at 405 nm.

Another test addresses T2, placental αvβ3 (Homo sapiens, UniProt P05106+P06756).
T2 construct: purified active GP IIb-IIIa (Calbiochem) or olacental αvβ3 at 0.5 μg/ml; from tissue; host or cells: placenta
The test can be described thus: Fibrinogen binding to immobilized αvβ3. As to conditions: biotinylated-fibrinogen 10 nM, immobilized placental αvβ3; read-out: IC50 values for the fibrinogen binding assay αvβ3. The method, then:
as §1

Where a name gives a salt, the structure may show the parent alone. Bounds are passed on as bounds.

T1 sequence (P08514 32-887 limits assumed): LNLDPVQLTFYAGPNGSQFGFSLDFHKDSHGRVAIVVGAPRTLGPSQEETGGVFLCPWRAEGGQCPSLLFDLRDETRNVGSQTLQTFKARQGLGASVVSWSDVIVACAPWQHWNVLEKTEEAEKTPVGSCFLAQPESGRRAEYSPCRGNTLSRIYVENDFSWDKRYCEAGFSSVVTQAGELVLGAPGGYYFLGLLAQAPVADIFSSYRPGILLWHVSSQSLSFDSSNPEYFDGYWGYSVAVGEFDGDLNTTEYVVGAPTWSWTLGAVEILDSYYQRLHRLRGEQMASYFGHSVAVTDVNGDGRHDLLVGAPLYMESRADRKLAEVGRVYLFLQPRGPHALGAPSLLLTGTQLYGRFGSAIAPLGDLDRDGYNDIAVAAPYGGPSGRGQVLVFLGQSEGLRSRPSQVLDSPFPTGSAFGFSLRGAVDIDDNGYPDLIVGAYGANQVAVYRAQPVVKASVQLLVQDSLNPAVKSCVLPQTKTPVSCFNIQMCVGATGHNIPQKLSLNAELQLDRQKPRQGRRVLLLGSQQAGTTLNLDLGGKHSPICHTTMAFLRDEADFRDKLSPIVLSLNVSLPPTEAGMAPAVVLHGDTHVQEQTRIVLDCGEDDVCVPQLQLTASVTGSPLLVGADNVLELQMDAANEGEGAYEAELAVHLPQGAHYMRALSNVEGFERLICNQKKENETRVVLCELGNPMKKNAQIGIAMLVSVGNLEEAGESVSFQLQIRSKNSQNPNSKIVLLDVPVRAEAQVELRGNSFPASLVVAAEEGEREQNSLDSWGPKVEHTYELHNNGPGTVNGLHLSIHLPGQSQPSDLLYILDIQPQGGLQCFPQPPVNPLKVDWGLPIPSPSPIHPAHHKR
T1 sequence (P08514 891-1039 partner limits assumed): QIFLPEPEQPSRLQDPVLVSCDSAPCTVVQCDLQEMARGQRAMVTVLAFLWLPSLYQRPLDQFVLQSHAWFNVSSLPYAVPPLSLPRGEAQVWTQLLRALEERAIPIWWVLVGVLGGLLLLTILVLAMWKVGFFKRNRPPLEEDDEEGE
T1 sequence (P05106 27-788): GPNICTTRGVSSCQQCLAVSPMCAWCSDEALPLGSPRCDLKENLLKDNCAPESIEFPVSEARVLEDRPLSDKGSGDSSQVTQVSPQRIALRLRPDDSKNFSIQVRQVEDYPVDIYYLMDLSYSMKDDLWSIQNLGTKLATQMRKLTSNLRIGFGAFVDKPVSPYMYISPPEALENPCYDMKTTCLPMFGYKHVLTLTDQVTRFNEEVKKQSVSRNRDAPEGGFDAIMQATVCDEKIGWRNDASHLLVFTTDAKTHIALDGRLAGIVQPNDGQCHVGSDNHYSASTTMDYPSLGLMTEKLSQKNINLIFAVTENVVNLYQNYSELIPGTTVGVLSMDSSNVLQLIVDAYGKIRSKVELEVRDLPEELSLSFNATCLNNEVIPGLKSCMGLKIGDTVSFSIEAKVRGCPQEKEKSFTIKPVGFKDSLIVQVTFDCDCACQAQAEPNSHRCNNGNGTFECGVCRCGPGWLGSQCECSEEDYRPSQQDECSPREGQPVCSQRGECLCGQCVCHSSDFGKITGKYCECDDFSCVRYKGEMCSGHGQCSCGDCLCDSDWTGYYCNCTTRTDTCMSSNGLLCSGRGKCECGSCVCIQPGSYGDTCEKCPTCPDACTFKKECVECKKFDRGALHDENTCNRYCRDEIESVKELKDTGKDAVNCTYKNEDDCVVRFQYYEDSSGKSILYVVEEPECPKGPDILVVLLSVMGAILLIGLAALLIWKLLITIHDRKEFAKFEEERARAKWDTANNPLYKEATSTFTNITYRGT
T2 sequence (P06756 31-889 limits assumed): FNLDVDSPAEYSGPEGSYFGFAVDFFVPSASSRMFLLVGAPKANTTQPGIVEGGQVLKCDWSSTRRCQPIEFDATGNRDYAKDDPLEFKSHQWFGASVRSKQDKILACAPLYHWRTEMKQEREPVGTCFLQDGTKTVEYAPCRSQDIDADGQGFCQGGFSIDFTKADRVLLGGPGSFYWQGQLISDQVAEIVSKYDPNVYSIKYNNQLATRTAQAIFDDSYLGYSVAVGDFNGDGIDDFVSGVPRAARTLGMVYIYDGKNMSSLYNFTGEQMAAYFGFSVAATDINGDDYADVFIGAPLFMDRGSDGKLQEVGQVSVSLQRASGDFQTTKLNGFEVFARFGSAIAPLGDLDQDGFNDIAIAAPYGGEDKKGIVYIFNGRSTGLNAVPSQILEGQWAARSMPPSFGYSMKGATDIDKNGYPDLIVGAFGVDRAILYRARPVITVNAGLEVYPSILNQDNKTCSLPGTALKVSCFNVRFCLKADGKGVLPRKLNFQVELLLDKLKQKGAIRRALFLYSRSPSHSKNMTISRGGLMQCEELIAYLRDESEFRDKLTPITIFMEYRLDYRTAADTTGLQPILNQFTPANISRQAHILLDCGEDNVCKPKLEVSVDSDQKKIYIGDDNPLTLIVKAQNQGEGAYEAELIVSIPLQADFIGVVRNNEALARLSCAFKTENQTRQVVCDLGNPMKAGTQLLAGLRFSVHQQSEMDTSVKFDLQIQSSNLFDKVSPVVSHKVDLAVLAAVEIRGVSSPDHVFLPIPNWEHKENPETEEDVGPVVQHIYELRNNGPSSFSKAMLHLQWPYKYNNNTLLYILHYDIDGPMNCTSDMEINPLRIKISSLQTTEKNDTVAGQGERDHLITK
T2 sequence (P06756 891-1048 partner limits assumed): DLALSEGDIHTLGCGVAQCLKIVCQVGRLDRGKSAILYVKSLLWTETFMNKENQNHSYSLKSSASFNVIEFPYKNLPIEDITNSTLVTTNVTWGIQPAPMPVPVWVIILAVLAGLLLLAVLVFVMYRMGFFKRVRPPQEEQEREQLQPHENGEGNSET
T2 sequence (P05106 27-788): as the sequence (P05106 27-788) above

With `N=C(N)NCCCOc1ccc2ccc(NC(=O)NC(CC(=O)O)c3cccnc3)c(=O)n2c1` (racemic) [Compound VIII, (+/−)-3-{3-[7-(3-Guanidino-propoxy)-4-oxo-4H-quinolizin-3-yl]-ureido}-3-pyridin-3-yl-propionic Acid], the concentration for half-maximal inhibition (IC50) at GP IIb-IIIa (αIIbβ3) came to 3.5 µM; on placental αvβ3 it was 1.2 µM.

Regarding `O=C(O)CC(NC(=O)c1ccc2ccc(OCCCNC(=O)OCc3ccccc3)cn2c1=O)c1ccccc1` (racemic) [Compound XI, (+/−)-3-{[7-(3-Benzyloxycarbonylamino-propoxy)-4-oxo-4H-quinolizine-3-carbonyl]-amino}-3-phenyl-propionic Acid], the IC50 at GP IIb-IIIa (αIIbβ3) and at placental αvβ3 was 20 µM in each case.

Turning to `N=C(N)NC1CCC(Nc2ccn3c(=O)c(C(=O)NC(CC(=O)O)c4ccccc4)ccc3c2)CC1` (racemic) [Compound XLI, (+/−)-3-{[8-(4-Guanidino-cyclohexylamino)-4-oxo-4H-quinolizine-3-carbonyl]-amino}-3-phenyl-propionic Acid Trifluoroacetic Acid Salt], the IC50 is 0.23 µM on GP IIb-IIIa (αIIbβ3) and 17 µM at placental αvβ3.

As to `N=C(N)NCc1ccc2cc(C(=O)NC(CC(=O)O)c3cc(Cl)cc(Cl)c3)cc(=O)n2c1` (racemic) [Compound XLII, (+/−)-3-(3,5-Dichlorophenyl)-3-((7-guanidinomethyl-4-oxo-4H-quinolizine-2-carbonyl)-amino]-propionic acid trifluoroacetic acid salt], the IC50 on GP IIb-IIIa (αIIbβ3) amounted to 23 µM; at placental αvβ3 it was 4 µM.

Regarding `N=C(N)NCc1ccc2cc(C(=O)NC(CC(=O)O)c3cccnc3)cc(=O)n2c1` (racemic) [Compound XLIII, (+/−)-3-[(7-guanidinomethyl-4-oxo-4H-quinolizine-2-carbonyl]-amino)-3-pyridin-3-yl-propionic acid bis-trifluoroacetic acid salt], the values for the IC50 at GP IIb-IIIa (αIIbβ3) and at placental αvβ3 were 14.8 µM and 0.72 µM, respectively.

Consider `N=C(N)NCc1ccc2cc(C(=O)NCC(Nc3ncccn3)C(=O)O)cc(=O)n2c1` (racemic) [Compound XLIV, (+/−)-3-[(7-guanidinomethyl-4-oxo-4H-quinolizine-2-carbonyl)-amino]-2-(pyrimidin-2-ylamino)-propionic acid bis-trifluoroacetic acid salt], for which the IC50 on GP IIb-IIIa (αIIbβ3) is 6 µM; on placental αvβ3, 0.03 µM.

`CN(CCN(C)c1ccn2c(=O)c(C(=O)NC(CC(=O)O)c3ccccc3)ccc2c1)C(=N)N` (racemic) [Compound XXXIX, (+/−)-3-[(8-{Methyl-[2-(N-methyl-guanidino)-ethyl]-amino}-4-oxo-4H-quinolizine-3-carbonyl)-amino]-3-phenyl-propionic Acid Trifluoroacetic Acid Salt]: the values for the IC50 on GP IIb-IIIa (αIIbβ3) and at placental αvβ3 were 0.063 µM and 21 µM, respectively.

For `NCCNc1ccn2c(=O)c(C(=O)NC(CC(=O)O)c3ccccc3)ccc2c1` (racemic) [Compound XXXVI, (+/−)-3-{[8-(2-Amino-ethylamino)-4-oxo-4H-quinolizine-3-carbonyl]-amino}-3-phenyl-propionic Acid], the IC50 was determined as 10 µM at GP IIb-IIIa (αIIbβ3) and 19 µM at placental αvβ3.

Turning to `N=C(N)SCCNc1ccn2c(=O)c(C(=O)NC(CC(=O)O)c3ccccc3)ccc2c1` (racemic) [Compound XXXVII, (+/−)-3-{[8-(2-Carbamimidoylsulfanyl-ethylamino)-4-oxo-4H-quinolizine-3-carbonyl]-amino}-3-phenyl-propionic Acid Trifluoroacetic Acid Salt], the results for the concentration for half-maximal inhibition (IC50) on GP IIb-IIIa (αIIbβ3) and at placental αvβ3 were 0.17 µM and 8.2 µM, respectively.

With `O=C(O)CC(NC(=O)c1ccc2cc(NCCSC(=S)Nc3cccnc3)ccn2c1=O)c1ccccc1` (racemic) [Compound XXXVIII, (+/−)-3-({4-Oxo-8-[2-(pyridin-3-ylthiocarbamoylsulfanyl)-ethylamino]4H-quinolizine-3-carbonyl}-amino)-3-phenyl-propionic acid trifluoroacetic acid salt], the figures for the IC50 at GP IIb-IIIa (αIIbβ3) and at placental αvβ3 were 0.045 µM and 13 µM, respectively.

As for `O=C(O)CC(NC(=O)c1ccc2ccc(OCCCNC(=O)NCc3ccccc3)cn2c1=O)c1ccccc1` (racemic) [Compound X], the IC50 at GP IIb-IIIa (αIIbβ3) was found to be 29 µM; on placental αvβ3 it was 67 µM.

Turning to `NCCCOc1ccc2cc(C(=O)NC[C@H](Nc3ncccn3)C(=O)O)cc(=O)n2c1` (stereo in doubt) [Compound XXI, 3-{[7-(3-Amino-propoxy)-4-oxo-4H-quinolizine-2 carbonyl]-amino}-2-(pyrimidin-2-ylamino)-propionic Acid Hydrochloride], the IC50 turned out to be 0.074 µM on GP IIb-IIIa (αIIbβ3) and 14 µM on placental αvβ3.

Consider `NCc1ccc2cc(C(=O)NC[C@H](NS(=O)(=O)c3ccccc3)C(=O)O)cc(=O)n2c1` (stereo in doubt) [Compound XXVI, 3-[(7-Aminomethyl-4-oxo-4H-quinolizine-2-carbonyl)-amino]-2-benzenesulfonylamino-propionic Acid Trifluoroacetic Acid Salt], for which the values for the IC50 on GP IIb-IIIa (αIIbβ3) and on placental αvβ3 were 0.44 µM and 0.019 µM, respectively.

In the case of `NCCCCCOc1ccc2ccc(C(=O)NC[C@H](NS(=O)(=O)c3ccccc3)C(=O)O)c(=O)n2c1` [Compound I, (S)-2-Benzenesulfonylamino-3-{[7-(5-aminopentyloxy)-4-oxo-4H-quinolizine-3-carbonyl]-amino}-propionic Acid TFA Salt], the concentration for half-maximal inhibition (IC50) stood at 0.058 µM on GP IIb-IIIa (αIIbβ3) and 44 µM at placental αvβ3.

For `N=C(N)NCCCCCOc1ccc2ccc(C(=O)NC[C@H](NS(=O)(=O)c3ccccc3)C(=O)O)c(=O)n2c1` [Compound II, (S)-2-Benzenesulfonylamino-3-{[7-(5-guanidino-pentyloxy)-4-oxo-4H-quinolizine-3-carbonyl]-amino}-propionic Acid Hydrochloride], the results for the IC50 on GP IIb-IIIa (αIIbβ3) and on placental αvβ3 were 3.9 µM and 24 µM, respectively.

Take `NCCCOc1ccc2ccc(C(=O)NC[C@H](NS(=O)(=O)c3ccccc3)C(=O)O)c(=O)n2c1` [Compound III, (S)-3-{[7-(3-Amino-propoxy)-4-oxo-4H-quinolizine-3-carbonyl]-amino}-2-benzenesulfonylamino-propionic Acid Trifluoroacetic Acid Salt]: the results for the IC50 on GP IIb-IIIa (αIIbβ3) and at placental αvβ3 were 0.52 µM and 96 µM, respectively.

In the case of `N=C(N)NCCCOc1ccc2ccc(C(=O)NC[C@H](NS(=O)(=O)c3ccccc3)C(=O)O)c(=O)n2c1` [Compound IV, (S)-2-Benzenesulfonylamino-3-{[7-(3-guanidino-propoxy)-4-oxo-4H-quinolizine-3-carbonyl]-amino}-propionic Acid Hydrochloride], the figures for the concentration for half-maximal inhibition (IC50) on GP IIb-IIIa (αIIbβ3) and on placental αvβ3 were 0.033 µM and 8.7 µM, respectively.

Take `N=C(N)NCCCOc1ccc2ccc(NC(=O)NC[C@H](NS(=O)(=O)c3ccccc3)C(=O)O)c(=O)n2c1` [Compound IX, (S)-2-Benzenesulfonylamino-3-{3-[7-(3-guanidino-propoxy)-4-oxo-4H-quinolizin-3-yl]-ureido}-propionic Acid Trifluoroacetate Salt]: the results for the IC50 at GP IIb-IIIa (αIIbβ3) and at placental αvβ3 were 0.0096 µM and 1.3 µM, respectively.

In the case of `O=C(NC[C@H](NS(=O)(=O)c1ccccc1)C(=O)O)Nc1ccc2ccc(OCCCNC(=O)OCc3ccccc3)cn2c1=O` [Compound VI, (S)-2-Benzenesulfonylamino-3-{3-[7-(3-benzyloxycarbonylamino-propoxy)-4-oxo-4H-quinolizine-3-yl]-ureido}-propionic Acid], the figures for the IC50 at GP IIb-IIIa (αIIbβ3) and on placental αvβ3 were 1.8 µM and greater than 100 µM, respectively.

As to `NCCCOc1ccc2ccc(NC(=O)NC[C@H](NS(=O)(=O)c3ccccc3)C(=O)O)c(=O)n2c1` [Compound VII, (S)-3-{3-[7-(3-Amino-propoxy)-4-oxo-4H-quinolizin-3-yl]-ureido}-2-Benzenesulfonylamino-propionic Acid], the IC50 at GP IIb-IIIa (αIIbβ3) stood at 0.0018 µM; at placental αvβ3, 92 µM.

For `CNC(=O)NCCCOc1ccc2cc(C(=O)NC[C@H](NS(=O)(=O)c3ccccc3)C(=O)O)cc(=O)n2c1` [Compound XII, (S)-2-Benzenesulfonylamino-3-({7-[3-(3-methyl-ureido)-propoxy]-4-oxo-4H-quinolizine-2-carbonyl}-amino)-propionic Acid], the results for the IC50 on GP IIb-IIIa (αIIbβ3) and on placental αvβ3 were 0.79 µM and 1.1 µM, respectively.

Turning to `NCCCOc1ccc2cc(C(=O)O)cc(=O)n2c1` [Compound XIII, 7-(3-Amino-propoxy)-4-oxo-4H-quinolizine-2-carboxylic Acid Trifluoroacetic Acid Salt], the IC50 was 5.3 µM at GP IIb-IIIa (αIIbβ3) and greater than 100 µM at placental αvβ3.

Turning to `NCCCOc1ccc2cc(C(=O)NC[C@H](NS(=O)(=O)c3ccccc3)C(=O)O)cc(=O)n2c1` [Compound XIV, (S)-3-{[7-(3-Amino-propoxy)-4-oxo-4H-quinolizine-2-carbonyl]-amino}-2-benzenesulfonylamino-propionic Acid Trifluoroacetic Acid Salt], the results for the IC50 at GP IIb-IIIa (αIIbβ3) and at placental αvβ3 were 0.00038 µM and 17 µM, respectively.

On to `NCCOc1ccc2cc(C(=O)NC[C@H](NS(=O)(=O)c3ccccc3)C(=O)O)cc(=O)n2c1` [Compound XIX, (S)-3-{[7-(2-Amino-ethoxy)-4-oxo-4H-quinolizine-2-carbonyl]-amino}-2-benzenesulfonylamino-propionic Acid Trifluoroacetic Acid Salt], for which the IC50 on GP IIb-IIIa (αIIbβ3) came out at 0.029 µM; at placental αvβ3, 2 µM.

As for `O=C(NCc1ccc2cc(C(=O)NC[C@H](NS(=O)(=O)c3ccccc3)C(=O)O)cc(=O)n2c1)OCc1ccccc1` [Compound XLV, (S)-2-Benzenesulfonylamino-3-([(7-benzyloxycarbonylamino-methyl)-4-oxo-4H-quinolizine-2-carbonyl]-amino)-propionic acid], the IC50 on GP IIb-IIIa (αIIbβ3) came to 0.85 µM; at placental αvβ3, 0.91 µM.
